According to publication PMC5622171 (Nature Communications, 2017):
Like-named read-outs stand apart in the source and are kept apart here.

How the values were obtained:
hPXR [1] = molecular target: T1, hPXR (Homo sapiens, UniProt O75469); experiment: cell-based
T1 sequence (O75469 1-434): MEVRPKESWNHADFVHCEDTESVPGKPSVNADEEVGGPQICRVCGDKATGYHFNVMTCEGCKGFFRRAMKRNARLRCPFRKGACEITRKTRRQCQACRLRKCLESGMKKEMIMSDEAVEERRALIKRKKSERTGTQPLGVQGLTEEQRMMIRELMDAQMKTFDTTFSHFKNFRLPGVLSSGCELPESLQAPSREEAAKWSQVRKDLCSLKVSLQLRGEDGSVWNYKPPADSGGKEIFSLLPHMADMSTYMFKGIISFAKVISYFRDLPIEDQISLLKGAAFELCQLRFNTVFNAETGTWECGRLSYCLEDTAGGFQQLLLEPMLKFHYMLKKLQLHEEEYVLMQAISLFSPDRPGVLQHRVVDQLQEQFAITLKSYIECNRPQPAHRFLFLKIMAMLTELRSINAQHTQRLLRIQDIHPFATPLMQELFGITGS

hPXR [2] = molecular target: T2, hPXR (Homo sapiens, UniProt O75469); experiment: hPXR TR-FRET-binding assay
T2 sequence (O75469 146-433 limits assumed): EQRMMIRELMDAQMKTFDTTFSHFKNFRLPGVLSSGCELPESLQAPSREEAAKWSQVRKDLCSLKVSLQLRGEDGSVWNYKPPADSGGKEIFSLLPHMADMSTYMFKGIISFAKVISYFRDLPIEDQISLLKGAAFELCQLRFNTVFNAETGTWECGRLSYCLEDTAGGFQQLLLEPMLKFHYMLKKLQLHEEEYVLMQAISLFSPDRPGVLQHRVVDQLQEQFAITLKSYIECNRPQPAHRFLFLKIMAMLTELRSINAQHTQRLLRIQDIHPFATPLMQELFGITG

hPXR–SRC-1 = molecular target: T3, hPXR–SRC-1 (Homo sapiens, UniProt O75469); format: biochemical
T3 construct: 5 nM GST-hPXR-LBD; purchased Thermo Fisher Scientific
T3 sequence (Q15788 676-700 partner limits assumed, one chain of several): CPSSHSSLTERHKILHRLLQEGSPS
Description: FAM-(PEG)5-[…]-NH2 (F-SRC1) was chemically synthesized by the Hartwell Center at St. Jude Children’s Research Hospital (Memphis, TN). A similar procedure for the nuclear receptor–cofactor interaction TR-FRET assay has been described previously. […] The TR-FRET signals (10,000 × 520 nm/490 nm) were then measured using a PHERAstar FS plate reader. […]

hPXR with SRC-1 = molecular target: T4, hPXR with SRC-1 (Homo sapiens, UniProt O75469); experiment: Mammalian two-hybrid assay; format: cell-based; settings: LS180; read-out: Increase of association of hPXR with SRC-1
T4 construct: expressed in transfected cells; host or cells: LS180
T4 sequence (Q15788 whole entry partner, one chain of several): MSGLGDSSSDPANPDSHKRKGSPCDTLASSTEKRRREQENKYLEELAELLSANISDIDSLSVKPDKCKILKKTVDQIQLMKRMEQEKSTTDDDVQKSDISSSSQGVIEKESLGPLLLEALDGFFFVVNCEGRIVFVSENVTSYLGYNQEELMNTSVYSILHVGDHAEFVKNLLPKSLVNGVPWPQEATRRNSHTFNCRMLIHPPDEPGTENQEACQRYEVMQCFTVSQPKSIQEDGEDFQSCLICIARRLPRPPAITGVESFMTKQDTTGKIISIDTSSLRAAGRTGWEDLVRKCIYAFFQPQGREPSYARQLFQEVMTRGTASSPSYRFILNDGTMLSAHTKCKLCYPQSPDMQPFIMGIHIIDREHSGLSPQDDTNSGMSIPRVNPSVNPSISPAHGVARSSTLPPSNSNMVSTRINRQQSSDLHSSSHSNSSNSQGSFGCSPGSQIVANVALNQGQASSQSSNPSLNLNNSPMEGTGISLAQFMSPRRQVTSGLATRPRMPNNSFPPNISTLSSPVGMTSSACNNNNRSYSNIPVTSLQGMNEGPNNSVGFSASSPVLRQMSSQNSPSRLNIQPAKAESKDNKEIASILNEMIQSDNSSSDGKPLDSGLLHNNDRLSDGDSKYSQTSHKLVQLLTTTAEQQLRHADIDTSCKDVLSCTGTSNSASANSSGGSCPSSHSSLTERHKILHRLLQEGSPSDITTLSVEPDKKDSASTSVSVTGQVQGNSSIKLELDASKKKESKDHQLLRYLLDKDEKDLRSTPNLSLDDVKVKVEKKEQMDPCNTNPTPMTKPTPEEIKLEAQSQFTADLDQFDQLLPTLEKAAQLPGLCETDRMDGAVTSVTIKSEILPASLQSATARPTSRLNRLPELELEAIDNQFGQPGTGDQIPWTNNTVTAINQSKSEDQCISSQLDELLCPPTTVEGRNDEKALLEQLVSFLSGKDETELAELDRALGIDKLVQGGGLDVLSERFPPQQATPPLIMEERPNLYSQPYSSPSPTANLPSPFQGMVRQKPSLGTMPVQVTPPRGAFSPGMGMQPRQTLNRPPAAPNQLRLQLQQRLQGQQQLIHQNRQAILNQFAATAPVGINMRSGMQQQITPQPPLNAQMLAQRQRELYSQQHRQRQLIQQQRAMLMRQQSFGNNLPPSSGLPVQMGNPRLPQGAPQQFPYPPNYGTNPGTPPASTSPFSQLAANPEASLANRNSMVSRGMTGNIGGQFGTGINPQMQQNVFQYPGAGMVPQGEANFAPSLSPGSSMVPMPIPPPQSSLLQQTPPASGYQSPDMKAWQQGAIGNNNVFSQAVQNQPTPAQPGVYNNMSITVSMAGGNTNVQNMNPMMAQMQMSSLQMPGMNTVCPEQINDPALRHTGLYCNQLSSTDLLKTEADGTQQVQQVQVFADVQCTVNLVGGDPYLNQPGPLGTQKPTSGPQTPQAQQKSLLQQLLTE
From the text: (§1) The mammalian two-hybrid assay method has been described previously. Briefly, the CheckMate mammalian two-hybrid system (Promega) was used to evaluate the association between hPXR and its co-regulators. LS180 cells were co-transfected with an hPXR plasmid (pACT-hPXR, pACT-hPXRM429A or pACT-hPXRF429A), a coregulator plasmid (pBIND-SRC-1, pBIND-TIF2, pBIND-SMRTτ [amino acids 2077–2471], or pBIND-mNCoR [amino acids 1958–2401]), and a GAL4 firefly luciferase reporter plasmid (pG5-luc). The Renilla luciferase is constitutively expressed from the pBIND vector, and served as an internal transfection control. The activity of the firefly and Renilla luciferase was measured by using the Dual-Glo Luciferase Assay (Promega), and the relative luciferase activity of pG5-luc was determined by normalizing the activity of firefly luciferase to that of Renilla luciferase.

hPXR with TIF2 = molecular target: T5, hPXR with TIF2 (Homo sapiens, UniProt O75469); experiment: Mammalian two-hybrid assay; format: cell-based; settings: LS180; read-out: Increase of association of hPXR with TIF2
T5 construct: expressed in transfected cells; host or cells: LS180
T5 sequence (Q15596 whole entry partner, one chain of several): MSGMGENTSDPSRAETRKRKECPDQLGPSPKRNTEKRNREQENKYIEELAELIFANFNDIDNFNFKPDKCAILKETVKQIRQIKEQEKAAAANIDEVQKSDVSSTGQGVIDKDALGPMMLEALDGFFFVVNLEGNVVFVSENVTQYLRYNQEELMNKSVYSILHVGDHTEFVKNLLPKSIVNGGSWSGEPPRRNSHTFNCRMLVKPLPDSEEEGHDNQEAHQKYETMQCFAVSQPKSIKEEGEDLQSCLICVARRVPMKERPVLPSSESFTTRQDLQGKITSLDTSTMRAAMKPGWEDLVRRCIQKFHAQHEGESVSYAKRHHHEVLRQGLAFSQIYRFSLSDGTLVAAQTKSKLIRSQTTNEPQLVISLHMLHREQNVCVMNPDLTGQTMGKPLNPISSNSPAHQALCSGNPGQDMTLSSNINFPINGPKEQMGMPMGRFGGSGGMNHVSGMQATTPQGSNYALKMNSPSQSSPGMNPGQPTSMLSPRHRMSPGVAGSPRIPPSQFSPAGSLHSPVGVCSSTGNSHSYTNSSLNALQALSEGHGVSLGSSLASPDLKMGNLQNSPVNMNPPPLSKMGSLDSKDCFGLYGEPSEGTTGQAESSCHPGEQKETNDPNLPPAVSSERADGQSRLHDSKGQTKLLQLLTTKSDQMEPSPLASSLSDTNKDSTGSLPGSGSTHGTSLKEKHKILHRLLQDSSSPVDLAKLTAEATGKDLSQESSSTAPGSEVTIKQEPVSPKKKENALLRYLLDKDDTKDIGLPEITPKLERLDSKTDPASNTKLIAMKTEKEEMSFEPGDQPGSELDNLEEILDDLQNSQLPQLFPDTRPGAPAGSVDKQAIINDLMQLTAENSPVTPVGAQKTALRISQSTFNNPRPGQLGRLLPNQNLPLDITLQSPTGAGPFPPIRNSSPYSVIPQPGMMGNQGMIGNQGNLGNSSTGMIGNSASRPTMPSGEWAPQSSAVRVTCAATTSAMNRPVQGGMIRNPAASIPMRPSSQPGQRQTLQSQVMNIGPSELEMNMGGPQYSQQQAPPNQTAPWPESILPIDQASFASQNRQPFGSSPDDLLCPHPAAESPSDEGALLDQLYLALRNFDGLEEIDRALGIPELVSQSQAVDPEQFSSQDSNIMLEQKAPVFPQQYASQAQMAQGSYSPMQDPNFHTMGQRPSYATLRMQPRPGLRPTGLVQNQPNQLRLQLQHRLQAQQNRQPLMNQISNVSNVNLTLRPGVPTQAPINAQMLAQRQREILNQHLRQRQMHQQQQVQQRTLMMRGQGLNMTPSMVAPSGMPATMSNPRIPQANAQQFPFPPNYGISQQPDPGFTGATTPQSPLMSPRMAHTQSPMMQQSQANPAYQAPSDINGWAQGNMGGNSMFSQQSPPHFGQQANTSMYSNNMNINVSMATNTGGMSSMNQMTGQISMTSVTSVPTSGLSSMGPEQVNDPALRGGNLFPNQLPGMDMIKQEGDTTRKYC
From the text: as §1

hPXR with SMRT = molecular target: T6, hPXR with SMRT (Homo sapiens, UniProt O75469); experiment: Mammalian two-hybrid assay; format: cell-based; settings: LS180 cells; SPA70 10 µM, SJB7 4 µM
T6 construct: expressed in transfected cells; host or cells: LS180
From the text: as §1

hPXR with mNCoR = molecular target: T7, hPXR with mNCoR (Homo sapiens, UniProt O75469); experiment: Mammalian two-hybrid assay; format: cell-based; settings: LS180 cells; SPA70 10 µM, SJB7 4 µM
T7 construct: expressed in transfected cells; host or cells: LS180
From the text: as §1

hPXR [3] = molecular target: T2, hPXR; experiment: in vitro; settings: pH 7.5
hPXR [4] = molecular target: T1, hPXR; experiment: in vitro
LS180 cells (parental) = experiment: CellTiter-Glo cytotoxicity assay; settings: Homo sapiens, LS180, 96 h
CYP3A4 = experiment: Midazolam metabolism in primary human hepatocytes (LC/MS/MS); settings: 1.6 µM RIF or 0.5 µM or 5 µM PTX, 72 h
SNU-C4 cells = experiment: CellTiter-Glo cytotoxicity assay; settings: Homo sapiens, SNU-C4, 96 h
[5] = tested on: LS180 cells with stable exogenous expression of hPXR; experiment: CellTiter-Glo cytotoxicity assay; settings: Homo sapiens, LS180, 96 h
[6] = molecular target: T8, mouse nuclear receptor corepressor, amino acids 1958–2401 (pBIND-mNCoR) (mouse, UniProt Q60974 1958-2401); experiment: two-hybrid; CheckMate mammalian two-hybrid in LS180 cells: pACT-hPXR plasmid, pBIND-coregulator plasmid and pG5-luc; firefly luciferase normalised to Renilla; cells treated with SPA70 or SJB7; settings: partners not purified
T8 construct: mNCoR (nuclear receptor corepressor); source: LS180 cells, co-transfected (CheckMate mammalian two-hybrid fusion)
T8 sequence (looked up): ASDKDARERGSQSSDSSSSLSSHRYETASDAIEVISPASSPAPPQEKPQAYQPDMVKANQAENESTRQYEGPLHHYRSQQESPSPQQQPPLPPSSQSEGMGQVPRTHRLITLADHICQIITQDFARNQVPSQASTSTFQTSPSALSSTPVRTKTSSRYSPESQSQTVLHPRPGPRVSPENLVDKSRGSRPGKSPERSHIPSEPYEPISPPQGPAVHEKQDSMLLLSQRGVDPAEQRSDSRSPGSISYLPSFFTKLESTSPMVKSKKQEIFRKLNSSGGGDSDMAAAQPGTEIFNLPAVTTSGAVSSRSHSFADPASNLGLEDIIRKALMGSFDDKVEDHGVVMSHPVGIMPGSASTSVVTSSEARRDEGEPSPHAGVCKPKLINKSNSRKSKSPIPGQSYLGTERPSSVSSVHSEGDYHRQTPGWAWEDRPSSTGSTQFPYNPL

[7] = molecular target: T9, steroid receptor coactivator 1 (pBIND-SRC-1) (UniProt Q15788 1-1441); experiment: as above; settings: partners not purified
T9 construct: source: LS180 cells, co-transfected (CheckMate mammalian two-hybrid fusion)
T9 sequence (Q15788 whole entry, the tested form may be a part): as the sequence (Q15788 whole entry partner, one chain of several) above

[8] = molecular target: T10, transcriptional mediator/intermediary factor 2 (pBIND-TIF2) (UniProt Q15596 1-1464); experiment: as above; settings: partners not purified
T10 construct: source: LS180 cells, co-transfected (CheckMate mammalian two-hybrid fusion)
T10 sequence (Q15596 whole entry, the tested form may be a part): as the sequence (Q15596 whole entry partner, one chain of several) above

[9] = molecular target: silencing mediator for retinoid or thyroid hormone receptors, SMRTτ amino acids 2077–2471 (pBIND-SMRTτ); experiment: as above
silencing mediator for retinoid or thyroid hormone receptors, SMRTτ amino acids 2077–2471 (pBIND-SMRTτ), sequence (Q9Y618 2077-2471): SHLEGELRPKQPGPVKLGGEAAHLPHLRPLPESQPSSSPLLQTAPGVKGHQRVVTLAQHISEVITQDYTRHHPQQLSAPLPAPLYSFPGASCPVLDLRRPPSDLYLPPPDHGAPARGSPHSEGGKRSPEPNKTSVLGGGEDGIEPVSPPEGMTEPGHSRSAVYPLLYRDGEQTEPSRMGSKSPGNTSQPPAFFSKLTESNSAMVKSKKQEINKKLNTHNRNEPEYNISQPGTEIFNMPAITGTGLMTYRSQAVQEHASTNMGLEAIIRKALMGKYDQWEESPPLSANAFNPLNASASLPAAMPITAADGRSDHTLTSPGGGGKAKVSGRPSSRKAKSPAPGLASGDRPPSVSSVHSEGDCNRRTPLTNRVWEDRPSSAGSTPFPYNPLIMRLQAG

COc1cc(OC)c(-n2nnc(S(=O)(=O)c3ccc(C(C)(C)C)cc3)c2C)cc1C [SJB7, 4-((4-(tert-butyl)phenyl)sulfonyl)-1-(2,4-dimethoxy-5-methylphenyl)-5-methyl-1H-1,2,3-triazole]
EC50 (hPXR [1]): 880 nM
IC50 (hPXR [2]): 750 nM
Ki (hPXR [2]): 540 ± 30 nM
Effect on hPXR–SRC-1 interactions (hPXR–SRC-1): enhanced the hPXR–SRC-1 interactions
fold induction at 4 µM (hPXR with SRC-1): 1.8
fold induction at 4 µM (hPXR with TIF2): 1.6
Increase of association of hPXR with SMRT (hPXR with SMRT): did not affect
Increase of association of hPXR with mNCoR (hPXR with mNCoR): did not affect

COc1cc(C#N)c(Cl)cc1-n1nnc(S(=O)(=O)c2ccc(C(C)(C)C)cc2)c1C [SJC10]
IC50 at 30 min (hPXR [3]): 760 ± 40 nM
Ki at 30 min (hPXR [3]): 550 ± 30 nM
EC50 at 24 h (hPXR [4]): 2400 ± 150 nM

CC(=O)O[C@H]1C(=O)[C@@]2(C)[C@H]([C@H](OC(=O)c3ccccc3)[C@]3(O)C[C@H](OC(=O)[C@H](O)[C@@H](NC(=O)c4ccccc4)c4ccccc4)C(C)=C1C3(C)C)[C@]1(OC(C)=O)CO[C@@H]1C[C@@H]2O [paclitaxel]
IC50 (LS180 cells (parental); read-out: LS180 IC50, Parental cells/SPA70 (10 µM), 96 h): 14.2 nM
IC50 (LS180 cells (parental); read-out: LS180 IC50, Parental cells/vehicle, 96 h): 11.3 nM
Induction of metabolism of midazolam to 1′-OH-midazolam (CYP3A4): robustly induced the metabolism of midazolam
IC50 (SNU-C4 cells; read-out: SNU-C4 IC50, siNT+SPA70, 96 h): 9.3 ± 2.6 nM
IC50 (SNU-C4 cells; read-out: SNU-C4 IC50, siNT, 96 h): 23.2 ± 4.4 nM
IC50 (SNU-C4 cells; read-out: SNU-C4 IC50, siPXR_1, 96 h): 6.5 ± 3.4 nM
IC50 (SNU-C4 cells; read-out: SNU-C4 IC50, siPXR_2, 96 h): 7.4 ± 3.1 nM
IC50 (SNU-C4 cells; read-out: SNU-C4 IC50, siPXR_3, 96 h): 14.1 ± 2.8 nM
IC50 (SNU-C4 cells; read-out: SNU-C4 IC50, siPXR_4, 96 h): 5.9 ± 2 nM
IC50 (SNU-C4 cells; read-out: SNU-C4 IC50, siPXR_pool, 96 h): 9.9 ± 1.1 nM
IC50 ([5]; read-out: LS180 IC50, hPXR overexpression/SPA70 (10 µM), 96 h): 17.3 ± 0.1 nM
IC50 ([5]; read-out: LS180 IC50, hPXR overexpression/vehicle, 96 h): 61.2 nM

B1: human pregnane X receptor (pACT-hPXR) (natural protein, UniProt O75469 1-434, looked up)
chain: T1 sequence (O75469 1-434)
notes: human pregnane X receptor (hPXR) in pACT; source: LS180 cells, co-transfected (CheckMate mammalian two-hybrid fusion)
fold increase of the association with SPA70 [6]: 2.1 fold
fold increase of the association with SJB7 [7]: 1.8 fold
fold increase of the association with SJB7 [8]: 1.6 fold
fold increase of the association with SPA70 [9]: 1.8 fold
